In patent publication US12460245B2, “Luciferase sequences utilizing infrared-emitting substrates to produce enhanced luminescence” (Promega Corporation, priority 2014, dated 2025):

How the values were obtained:
CBR [1] = assay: Luminescence of CBR using Aka Lumine, PBI-4739 and PBI-4813; assay type: biochemical, click beetle; conditions: FIG. 19A
Source text: (§1) FIG. 19A and FIG. 19B illustrate the luminescence of CBR using Aka Lumine, PBI-4739 and PBI-4813 (FIG. 19A) and the spectral scan of QuantiLum® Recombinant Luciferase using Aka Lumine as substrate (FIG. 19B).

[2] = molecular target: T1, QuantiLum® Recombinant Luciferase (Photinus pyralis, UniProt P08659); assay: Spectral scan using Aka Lumine as substrate; assay type: biochemical; conditions: FIG. 19B
T1 construct: purchased Promega E1701
Source text: as §1

CBR [3] = assay: Km titration in live HEK293T cells; assay type: cell-based, click beetle; conditions: 60 min at 37° C.
Protocol: HEK293T cells were plated at 15,000 cells/well into wells of 96-well white assay plates and grown overnight. A transfection mixture was made containing 13 μg of CBR DNA and 40 μL FuGENE® HD in a total volume of 620 μL OptiMEM. The mixture was incubated at room temperature for 10 min. The cells were then transfected, in triplicate, with 5 μL of transfection complex and grown overnight. […] The growth media from the transfected cells was removed and replaced with one of the 3× serial diluted substrate containing media. The cells were incubated 60 min at 37° C., and the cells were imaged on a ImageQuant CCD imager (FIG. 22).

[4] = molecular target: T2, QuantiLum® luciferase (firefly) (Photinus pyralis, UniProt P08659); assay: Spectral scan of near-IR substrates with purified enzyme; assay type: biochemical; conditions: substrate 1 mM in Bright-Glo Assay buffer + 1 mM ATP
T2 construct: purchased Promega E1701
Protocol: Materials: The following were used in the Examples: Ultra-Glo™ Luciferase (Promega Cat. No. E140); QuantiLum® Recombinant Luciferase (Promega Cat. No. E1701); Click Beetle Red Luciferase (CBR; 0.5 mg/mL purified; Promega); Bright-Glo™ assay buffer (Promega Cat. No. E264A); PBI-4739 (Promega—See FIG. 1); and PBI-4813 (Promega—See FIG. 1).
Experimental Details. The substrates, PBI-4813 and PBI-4739, were diluted to 1 mM (final concentration) in Bright-Glo™ Assay buffer+1 mM ATP. 50 μL of substrate solution was added to 50 μL of Click Beetle Red, UltraGlo® or QuantiLum® purified enzyme (0.5 mg/mL diluted in DMEM+0.1% Prionex) in triplicate, and then the samples assayed using a Tecan M-1000 plate reader in spectral scan mode.
FIG. 2 provides the spectral data for Click Beetle Red Luciferase with PBI-4813 (A) and PBI-4739 (B), where the spectral maximum was 655 nm for PBI-4813 and 760 nm for PBI-4739. FIG. 3 provides the spectral data for UltraGlo® luciferase with PBI-4813 (A) and PBI-4739 (B), where the spectral maximum was 670 nm for PBI-4813 and 660 nm for PBI-4739. FIG. 4 provides the spectral data for QuantiLum® luciferase (firefly) with PBI-4813 (A) and PBI-4739 (B), where the spectral maximum was 680 nm for PBI-4813 and equal to or greater than 700 nm for PBI-4739.

[5] = Solubility of the substrates; assay type: physicochemical; conditions: PBI-4739 compared with PBI-4813
cells = assay: Cell toxicity studies; assay type: cell-based; conditions: compared to D-luciferin
ATG 1240 = assay: Mimicry of tissue attenuation using long pass filters, transfected HEK293T cells; assay type: cell-based, click beetle; conditions: HEK293T cells expressing ATG 1240; long pass filters
Protocol: A transfection complex was prepared by diluting ATG 1240 DNA or Luc2 DNA (pF4Ag-Luc2) to 100 ng/μL, and then 2× serial dilutions prepared in 50 ng/μL pGEM carrier DNA. 40 μL of the diluted DNA was the mixed with 160 μL phenol red free OptiMEM and 16 μL of FuGENE® HD and incubated for 20 min. 5 μL of each transfection complex was added to wells of a 96-well black assay plates and then 100 μL of diluted HEK293T cells (200,000/mL in DMEM+10% FBS) was added. The cells were grown overnight at 37° C. with CO2.
To assay the cells, 4 mM D-luciferin, 2 mM PBI-4813 and 2 mM PBI-4739 substrate solutions were prepared in DMEM+10% FBS. 100 μL of the D-luciferin solution was added to cells expressing Luc2 and ATG 1240, and 100 μL of PBI-4813 or PBI-4739 solution was added to ATG 1240 expressing cells. Samples were incubated for 10 min at 37° C., and luminescence detected on GloMax® Discover (heated to 37° C.) with no filter, 610 nm Long Pass (LP) filter, 665 nm LP filter, 695 nm LP filter, 720 nm LP filter or 760 nm LP filter.

[6] = system: Click Beetle Red (CBR) mutant(s); assay: Light emission from Click Beetle Red mutant(s) with the red-shifted substrates; assay type: biochemical; conditions: PBI-4813 compared with PBI-4739
[7] = Km in live cell (remark in Example 13); assay type: cell-based; conditions: enzyme not stated
[8] = Substrate inhibition of luciferase activity at high substrate concentration; assay type: biochemical
CBR [9] = assay: Km titration in live HeLa cells; assay type: cell-based, click beetle; conditions: 60 min at 37° C.
Protocol: HeLa cells were plated at 20,000 cells/well into wells of 96-well white assay plates and grown overnight. A transfection mixture was made containing 13 μg of CBR DNA and 40 μL FuGENE® HD in a total volume of 620 μL OptiMEM. The mixture was incubated at room temperature for 10 min. The cells were then transfected, in triplicate, with 5 μL of transfection complex and grown overnight. […] The growth media from the transfected cells was removed and replaced with one of the 3× serial diluted substrate containing media. The cells were incubated for 60 min at 37° C. Luminescence was detected on a GloMax®-Multi+luminometer (FIG. 21A and FIG. 21B).

ATG1240 = assay: Km titration in HEK293 cell lysates; assay type: biochemical, click beetle
Protocol: (§2) Some of the variants identified in Examples 2 and 3 were screened for their performance in mammalian cells. DNA was prepared by Plasmid.com. HEK293 and HeLa cells were plated into wells of a 24-well plate at 0.05×10^6 cells/mL and grown overnight at 37° C. with CO2. 2.2 μg variant DNA was mixed with 80 μL OptiMEM and 6.6 μL FuGENE® HD transfection reagent (Promega Corporation) and incubated at room temperature for 5 min. 25 μL of the DNA mixture was added to each well. After overnight incubation, the media was removed from the cells and 1 mL DPBS (Life Technologies) was added. […] Luminescence of the variants was normalized to the average of two CBR samples (FIG. 6 and FIG. 7). C. Km Titration. Cell lysates of ATG 1230 and ATG 1240 expressed in HEK293 cells were prepared as described in Example 4. The cell lysates were then diluted 1:10 in 0.3×PLB+0.1% Prionex. Dilutions (2×) of each substrate (PBI-4813 or PBI-4739) were prepared in Bright-Glo™ Assay buffer containing 1 mM ATP. 50 μL of diluted cell lysate was assayed with 50 μL of each substrate assay solution. Luminescence was detected on the GloMax® Discover (FIG. 12). […] Because the enzyme concentration is not known for the lysates of for live cell titrations, Vmax as expressed as a velocity is not possible. Instead, the relative Vmax calculates the maximum brightness for each lysate with different substrates.

CBR [10] = assay: Km titration in HEK293 cell lysates; assay type: biochemical, click beetle
Protocol: as §2

T2 sequence (P08659 whole entry): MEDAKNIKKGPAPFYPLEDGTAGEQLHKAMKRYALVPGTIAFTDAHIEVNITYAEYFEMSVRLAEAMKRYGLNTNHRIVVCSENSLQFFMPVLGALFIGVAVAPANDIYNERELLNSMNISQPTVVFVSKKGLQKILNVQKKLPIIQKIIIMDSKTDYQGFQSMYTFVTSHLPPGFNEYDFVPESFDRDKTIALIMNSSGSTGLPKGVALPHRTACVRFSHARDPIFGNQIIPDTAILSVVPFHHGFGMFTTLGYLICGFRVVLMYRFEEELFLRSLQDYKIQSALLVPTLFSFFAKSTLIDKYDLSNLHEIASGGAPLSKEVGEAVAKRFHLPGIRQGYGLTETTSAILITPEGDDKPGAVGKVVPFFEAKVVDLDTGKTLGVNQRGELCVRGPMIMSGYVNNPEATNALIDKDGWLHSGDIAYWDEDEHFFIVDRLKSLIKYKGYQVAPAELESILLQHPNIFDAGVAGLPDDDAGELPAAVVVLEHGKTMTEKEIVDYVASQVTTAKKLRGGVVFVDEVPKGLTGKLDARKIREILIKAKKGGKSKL
T1 sequence (P08659 whole entry): as above

Compound | brightness (CBR [1]) | emission wavelength (less red) [2] [nm] | Km for CBR, lower relative to D-luciferin (CBR [3]) | spectral maximum with QuantiLum® luciferase (firefly) [4] [nm] | solubility [5] | cell toxicity (cells) | luminescence of ATG 1240 at the greatest light attenuation (ATG 1240) | brightness of light emission [6] | Km less than for D-luciferin in live cell [7] | substrate inhibition by the substrate [8] | Km for CBR in live cells, lower than the Km for D-luciferin (CBR [9]) | Km with ATG1240, lower than CBR with D-luciferin (ATG1240) | Km with CBR in the lysates, lower than CBR with D-luciferin (CBR [10])
CN(C)c1ccc(/C=C/C=C/C2=N[C@@H](C(=O)O)CS2)cc1 [Aka Lumine] | dimmer | 675 | – | – | – | – | – | – | – | – | – | – | –
O=C(O)C1CSC(c2nc3ccc4cc(O)ccc4c3s2)=N1 (stereo not shown) [PBI-4739] | – | – | about 5 times | ≥ 700 | less soluble | comparable non-toxicity to D-luciferin | – | – | – | – | – | – | –
Nc1ccc2c(ccc3nc(C4=NC(C(=O)O)CS4)sc32)c1 (stereo not shown) [PBI-4813] | – | – | about 23 times | 680 | – | comparable non-toxicity to D-luciferin | comparable | brighter | more than 10 times | possible substrate inhibition | about 20 times | about 5 × | about 30 ×
